Test results from patent publication EP3811940B1, “SUBSTITUTED 4,5'-BITHIAZOLES AS INHIBITORS OF THE HUMAN DNA TOPOISOMERASE II” (Kemijski Institut, priority 2019, dated 2021).
Read-outs that look alike come from different tables or passages of the source. Each block holds one molecule with its values, some of them ahead of it.

Tests used:
[1] = target: T1, human topo IIα (Homo sapiens, UniProt P11388); test: HTS relaxation assay of human topo IIα; format: biochemical; settings: screening at 7.8, 31.5, 125 and 500 µM
T1 construct: purchased Inspiralis (Norwich, UK)
T1 sequence (P11388 whole entry): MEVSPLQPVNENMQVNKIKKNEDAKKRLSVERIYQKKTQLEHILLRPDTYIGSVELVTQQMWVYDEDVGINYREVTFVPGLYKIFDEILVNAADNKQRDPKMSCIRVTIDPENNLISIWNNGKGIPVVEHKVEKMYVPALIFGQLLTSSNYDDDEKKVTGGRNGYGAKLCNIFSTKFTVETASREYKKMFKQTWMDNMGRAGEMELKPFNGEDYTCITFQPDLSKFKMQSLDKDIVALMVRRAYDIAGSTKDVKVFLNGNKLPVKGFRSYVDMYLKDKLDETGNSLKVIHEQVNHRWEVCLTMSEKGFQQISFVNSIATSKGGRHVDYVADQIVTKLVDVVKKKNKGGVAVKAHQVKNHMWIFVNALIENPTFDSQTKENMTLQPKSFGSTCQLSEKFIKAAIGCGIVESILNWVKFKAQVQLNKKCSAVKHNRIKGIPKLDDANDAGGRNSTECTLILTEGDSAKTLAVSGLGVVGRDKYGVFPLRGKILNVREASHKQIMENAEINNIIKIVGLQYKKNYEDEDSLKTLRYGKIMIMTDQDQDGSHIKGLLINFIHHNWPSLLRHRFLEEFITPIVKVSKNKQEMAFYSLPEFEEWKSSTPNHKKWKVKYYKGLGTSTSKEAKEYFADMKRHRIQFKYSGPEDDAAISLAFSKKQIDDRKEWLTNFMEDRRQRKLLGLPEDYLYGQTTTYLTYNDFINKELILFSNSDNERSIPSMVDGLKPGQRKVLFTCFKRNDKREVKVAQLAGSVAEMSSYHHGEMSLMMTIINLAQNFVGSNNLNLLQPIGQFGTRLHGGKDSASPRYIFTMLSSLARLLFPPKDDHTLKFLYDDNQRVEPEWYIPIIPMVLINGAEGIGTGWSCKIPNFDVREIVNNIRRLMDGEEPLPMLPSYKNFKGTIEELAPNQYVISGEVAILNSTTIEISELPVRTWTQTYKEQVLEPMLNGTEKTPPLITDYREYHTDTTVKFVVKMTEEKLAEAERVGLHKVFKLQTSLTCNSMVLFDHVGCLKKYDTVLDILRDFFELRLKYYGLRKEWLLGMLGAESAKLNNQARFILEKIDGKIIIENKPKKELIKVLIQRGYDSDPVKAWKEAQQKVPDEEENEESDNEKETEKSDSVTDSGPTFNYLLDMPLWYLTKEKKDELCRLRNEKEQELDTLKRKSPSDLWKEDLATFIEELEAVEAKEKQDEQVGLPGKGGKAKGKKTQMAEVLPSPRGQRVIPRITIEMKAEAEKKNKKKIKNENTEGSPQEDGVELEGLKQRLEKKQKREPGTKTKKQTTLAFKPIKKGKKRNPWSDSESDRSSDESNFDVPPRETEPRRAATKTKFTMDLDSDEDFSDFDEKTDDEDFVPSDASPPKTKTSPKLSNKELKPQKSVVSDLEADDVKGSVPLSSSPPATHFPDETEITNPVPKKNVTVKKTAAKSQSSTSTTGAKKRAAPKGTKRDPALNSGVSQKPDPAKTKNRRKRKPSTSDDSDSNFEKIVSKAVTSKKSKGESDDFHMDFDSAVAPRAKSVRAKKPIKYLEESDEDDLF
Description: The 14 selected compounds from the class of substituted 4,5'-bithiazoles were experimentally assayed if they inhibit catalytic activity of human topo IIα using an established high-throughput screening (HTS) relaxation assay for human topo IIα [24].
The HTS assays primarily served to select compounds for further evaluation.
Plate was rehydrated using wash buffer (20 mM Tris-HCl (pH = 7.6), 137 mM NaCl, 0.005 % (w/v) BSA, 0.05 % (v/v) TWEEN-20®) and biotinylated oligonucleotide was immobilized onto the wells. Next, the excess oligonucleotide was washed off with wash buffer. Enzyme assay was carried out in reaction volume of 30 µL using 0.75 µg supercoiled plasmid pNO1 as a substrate and human topo IIα. Enzyme was diluted to the appropriate concentration with dilution buffer comprised of 50 mM Tris-Hcl (pH = 7.5), 100 mM NaCl, 1 mM DTT, 0.5 mM EDTA, 50 % (v/v) glycerol and 50 µg/mL albumin. Tested compounds (0.3 µL) were added as a stock solution in DMSO and final concentration of DMSO was 1 %, respectively. Reactions were incubated at 37 °C for 30 min, and TF buffer (50 mM NaOAc (pH = 5.0), 50 mM NaCl, 50 mM MgCl2) was added to the wells and incubated at room temperature for additional 30 min to allow the triplex biotin-oligonucleotid-plasmid formation. To eliminate the aggregation and non-specific inhibition a surfactant (TWEEN-20®) was added to the reaction mixture. Unbound plasmid was washed off with TF buffer and stained with the DNA-detection Dye in the T10 buffer (10 mM Tris-HCl (pH = 8) and 1 mM EDTA) was added. After mixing, fluorescence was read using Tecan fluorimeter (Excitation: 485 nm and Emission: 535 nm). Screening was performed at the inhibitor concentrations of 7.8, 31.5, 125 and 500 µM. IC50 values were calculated using GraphPad Prism 6.0 software and represent the concentrations of inhibitors where residual activity of the enzyme was 50 % [24].

[2] = tested on: MCF-7 cells; test: MTS cytotoxicity assay, MCF-7; format: cell-based, human; settings: for EC50: Homo sapiens, interval in brackets; for effect on the tested cell lines: initial screening, 24 h, 100 µM for compound 6, 200 µM for 8 and 11, result in words
From the text: (§1) We determined the cytotoxicity of the tested compounds on human breast cancer MCF-7 and human hepatocellular carcinoma HepG2 cancer cell lines using MTS assay. Both selected human cancer cell lines are representative and well-established systems for cell-based evaluation of potential anticancer compounds. Etoposide was again used as a positive control (PC).
(§2) In the first step we performed the initial screening of compounds 1-14 at one concentration. […] Exponentially growing cells were exposed to all compounds for 24 h and the results are represented in Figure 3A.
(§3) In vitro cytotoxicity of investigated compounds was evaluated in two human cancer cell lines: the […] cell lines. The HepG2 cells (ATCC) were cultivated at 37 °C and 5 % CO2 in MEME medium (M2414, Sigma) supplemented with 10 % FBS, 2 mM L-Glutamine, 1 % NEAA, 2.2 g/L NaHCO3, 1 mM sodium pyruvate and 100 IU/mL penicillin/ streptomycin and MCF-7 (ATCC) were cultivated in Eagle's MEM medium (M5650, Sigma), supplemented with 10 % fetal bovine serum, 2 mM glutamine, and 100 IU/mL penicillin/streptomycin. After the exposure to the tested compounds the viability of HepG2 and MCF-7 cells was determined by MTS tetrazolium reduction assay. The cells were seeded onto 96-well microplates (Nunc, TermoFisher Scientific, Waltham, MA, USA) at densities of 8000 cells per well (HepG2) and 7000 cells per well (MCF-7) in […] growth medium and incubated overnight to attach. The next day, the growth medium was replaced by the fresh complete growth medium containing appropriate concentrations of the compounds. […] Finally, the absorbance was measured at wavelength of 490 nm using a Microplate Reader (Synergy MX, BioTek, Winooski, VT, USA). […] Assay was performed at 5 concentrations of each compound; 2, 25, 50, 100 and 200 µM for compounds 1, 7 and 14 and 1, 12.5, 25, 50, 100 µM for compounds 9 and 10. […] Cell viability was determined by comparing the OD (optical density) of the wells containing the cells treated with investigated compounds with those of solvent control cells and presented as % of cell viability ± SD. Experiments were performed three times independently each time in at least three replicates. EC50 values were calculated by non-linear regression analysis using GraphPad Prism 7.0 Software. Statistical significance between treated groups and the control was determined by One-way analysis of variance and Dunnett's Multiple Comparison Test.

[3] = tested on: HepG2 cells; test: MTS cytotoxicity assay, HepG2; format: cell-based, human; settings: for EC50: Homo sapiens, interval in brackets; for effect on the tested cell lines: initial screening, 24 h, 100 µM for compound 6, 200 µM for 8 and 11, result in words
From the text: as §1, §2, §3

[4] = solubility in the cell growth media; format: physicochemical; settings: result in words
[5] = MCF7, read-out: EC50 [µM] MCF-7 (24h), 24h exposure
[6] = MCF7, 72h exposure, read-out: EC50 [µM] MCF-7 (72h)
[7] = HepG2, read-out: EC50 [µM] HepG2 (24h), 24h exposure
[8] = HepG2, 72h exposure, read-out: EC50 [µM] HepG2 (72h)

Structure (SMILES): Cc1nc(N)sc1-c1csc(Nc2ccc(S(N)(=O)=O)cc2)n1 [Compound 5, 4-((2'-amino-4'-methyl-[4,5'-bithiazol]-2-yl)amino)benzenesulfonamide]
IC50 [1]: 70.1 µM

Structure (SMILES): CC(=O)Nc1nc(C)c(-c2csc(Nc3cccc(O)c3)n2)s1 [Compound 7, N-(2-((3-hydroxyphenyl)amino)-4'-methyl-[4,5'-bithiazol]-2'-yl)acetamide]
IC50 [1]: 33.7 µM
EC50 [2, 5]: 12.3 µM
EC50 [2, 6]: 6.6 µM
EC50 [3, 7]: 45.6 µM
EC50 [3, 8]: 32.3 µM

Structure (SMILES): Cc1nc(N)sc1-c1csc(Nc2ccc(C(=O)O)c(O)c2)n1 [Compound 6, 4-((2'-amino-4'-methyl-[4,5'-bithiazol]-2-yl)amino)-2-hydroxybenzoic acid]
IC50 [1]: 37.7 µM
effect on the tested cell lines [2]: little or no effect
effect on the tested cell lines [3]: little or no effect

Structure (SMILES): Cc1cc(NS(=O)(=O)c2ccc(Nc3nc(-c4sc(N)nc4C)cs3)cc2)no1 [Compound 4, 4-((2'-amino-4'-methyl-[4,5'-bithiazol]-2-yl)amino)-N-(5-methylisoxazol-3-yl)benzenesulfonamide]
IC50 [1]: 30.1 µM

Structure (SMILES): CC(=O)c1ccc(Nc2nc(-c3sc(N)nc3C)cs2)cc1 [Compound 3, 1-(4-((2'-amino-4'-methyl-[4,5'-bithiazol]-2-yl)amino)phenyl)ethan-1-one]
IC50 [1]: 222 µM
solubility in the cell growth media [4]: low solubility

Structure (SMILES): Cc1cc(O)ccc1Nc1nc(-c2sc(N)nc2C)cs1 [Compound 2, 4-((2'-amino-4'-methyl-[4,5'-bithiazol]-2-yl)amino)-3-methylphenol]
IC50 [1]: 35.8 µM

Continued, in another order:

IC50 [1]: 12.6 µM
Structure (SMILES): Cc1nc(NC(=O)c2ccccc2)sc1-c1csc(Nc2ccc(C(=O)O)cc2)n1 [Compound 15, 4-((2'-benzamido-4'-methyl-[4,5'-bithiazol]-2-yl)amino)benzoic acid]

IC50 [1]: 120 µM
Structure (SMILES): CC(=O)Nc1nc(C)c(-c2csc(Nc3ccc(C(=O)O)cc3)n2)s1 [Compound 8, 4-((2'-acetamido-4'-methyl-[4,5'-bithiazol]-2-yl)amino)benzoic acid]
effect on the tested cell lines [2]: little or no effect
effect on the tested cell lines [3]: little or no effect

IC50 [1]: 193 µM
Structure (SMILES): CC(=O)Nc1nc(C)c(-c2csc(Nc3ccc(O)cc3)n2)s1 [Compound 12, N-(2-((4-hydroxyphenyl)amino)-4'-methyl-[4,5'-bithiazol]-2'-yl)acetamide]

IC50 [1]: 134 µM
Structure (SMILES): CC(=O)Nc1nc(C)c(-c2csc(Nc3cccc(C(=O)O)c3)n2)s1 [Compound 11, 3-((2'-acetamido-4'-methyl-[4,5'-bithiazol]-2-yl)amino)benzoic acid]
effect on the tested cell lines [2]: little or no effect
effect on the tested cell lines [3]: little or no effect

IC50 [1]: 22.7 µM
Structure (SMILES): COc1ccc(Nc2nc(-c3sc(NC(C)=O)nc3C)cs2)cc1 [Compound 10, N-(2-((4-methoxyphenyl)amino)-4'-methyl-[4,5'-bithiazol]-2'-yl)acetamide]
EC50 [2, 5]: 16.4 µM
EC50 [2, 6]: 4.5 µM
EC50 [3, 7]: 34.7 µM
EC50 [3, 8]: 14.6 µM

IC50 [1]: 123 µM
Structure (SMILES): CCC(=O)Nc1nc(C)c(-c2csc(Nc3ccc(C(=O)O)cc3)n2)s1 [Compound 13, 4-((4'-methyl-2'-propionamido-[4,5'-bithiazol]-2-yl)amino)benzoic acid]

IC50 [1]: 357 µM
Structure (SMILES): CC(=O)Nc1nc(C)c(-c2csc(Nc3ccccc3)n2)s1 [Compound 14, N-(4'-methyl-2-(phenylamino)-[4,5'-bithiazol]-2'-yl)acetamide]
EC50 [2, 5]: 32.3 µM
EC50 [2, 6]: 7.5 µM
EC50 [3, 7]: 47.7 µM
EC50 [3, 8]: 28.2 µM
